Experimental data taken from ChEMBL document CHEMBL1938252, “Structure-based optimization of morpholino-triazines as PI3K and mTOR inhibitors” (Bioorg Med Chem Lett, 2012).
pIC50: −log10 of the molar value.

How the values were obtained:
[1] = molecular target: T1, Serine/threonine-protein kinase mTOR (Homo sapiens, UniProt P42345); experiment: Inhibition of mTOR
[2] = molecular target: Phosphatidylinositol 4,5-bisphosphate 3-kinase catalytic subunit alpha isoform (Homo sapiens, UniProt P42336); experiment: Inhibition of PI3Kalpha
[3] = Selectivity ratio of IC50 for PI3Kaplha to IC50 for mTOR
[4] = molecular target: T1, Serine/threonine-protein kinase mTOR; experiment: Inhibition of mTOR-mediated p70S6K phosphorylation at Thr389 in human PC3 cells; type: cell-based, PC-3

Phosphatidylinositol 4,5-bisphosphate 3-kinase catalytic subunit alpha isoform, sequence (P42336 whole entry, canonical isoform): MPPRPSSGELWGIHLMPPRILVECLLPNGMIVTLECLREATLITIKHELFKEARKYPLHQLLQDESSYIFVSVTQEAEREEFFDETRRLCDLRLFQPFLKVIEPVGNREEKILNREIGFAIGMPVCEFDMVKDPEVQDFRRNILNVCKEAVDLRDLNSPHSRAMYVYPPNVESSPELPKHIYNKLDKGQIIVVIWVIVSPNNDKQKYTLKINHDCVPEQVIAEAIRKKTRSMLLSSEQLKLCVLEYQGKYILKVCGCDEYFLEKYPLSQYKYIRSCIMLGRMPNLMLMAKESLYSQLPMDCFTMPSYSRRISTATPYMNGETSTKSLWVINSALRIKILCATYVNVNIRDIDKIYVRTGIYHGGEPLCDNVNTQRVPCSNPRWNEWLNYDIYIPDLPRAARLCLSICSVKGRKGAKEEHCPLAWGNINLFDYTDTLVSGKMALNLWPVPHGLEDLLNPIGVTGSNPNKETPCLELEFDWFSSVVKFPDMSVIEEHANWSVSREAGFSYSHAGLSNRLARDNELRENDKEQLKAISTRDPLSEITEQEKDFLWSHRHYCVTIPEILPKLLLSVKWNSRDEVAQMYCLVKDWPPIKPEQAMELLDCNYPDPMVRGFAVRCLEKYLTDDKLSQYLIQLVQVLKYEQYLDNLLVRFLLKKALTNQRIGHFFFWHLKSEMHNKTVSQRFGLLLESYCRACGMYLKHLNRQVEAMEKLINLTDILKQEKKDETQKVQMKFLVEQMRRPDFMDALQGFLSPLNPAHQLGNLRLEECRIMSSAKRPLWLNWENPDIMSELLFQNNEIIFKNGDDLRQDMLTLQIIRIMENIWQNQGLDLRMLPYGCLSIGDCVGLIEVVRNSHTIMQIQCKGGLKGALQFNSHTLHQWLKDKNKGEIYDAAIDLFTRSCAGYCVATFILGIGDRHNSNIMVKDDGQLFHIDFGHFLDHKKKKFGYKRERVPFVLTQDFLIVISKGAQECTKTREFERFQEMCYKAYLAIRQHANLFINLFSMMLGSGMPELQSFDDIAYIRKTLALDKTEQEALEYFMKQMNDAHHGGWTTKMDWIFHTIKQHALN

| pIC50 [1] | pIC50 [2] | Ratio IC50 [3] | pIC50 [4] | SMILES |
| --- | --- | --- | --- | --- |
| 7.74 | 5.96 | 60 | 7.08 | Cc1ccc(-c2nc(N3CCOCC3)nc(-n3ccnc3C)n2)c2cc[nH]c12 |
| 7.15 | 5.39 | 57 | 6.31 | CCc1cc(C(F)(F)F)nn1-c1nc(-c2cccc3[nH]ccc23)nc(N2CCOCC2)n1 |
| 7.59 | 7.05 | 3.4 | 7.02 | CCc1nccn1-c1nc(-c2cccc3[nH]ccc23)nc(N2CCOCC2)n1 |
| 6.46 | – | – | – | FC(F)c1nc2ccccc2n1-c1nc(N2CCOCC2)nc(N2CCOCC2)n1 [ZSTK-474] |
| 7.02 | 7.28 | 0.6 | – | Cc1nccn1-c1nc(-c2cccc(O)c2)nc(N2CCOCC2)n1 |
| 6.38 | 7.60 | 0.06 | – | Cc1nccn1-c1nc(-c2cnc(N)nc2)nc(N2CCOCC2)n1 |
| 6.24 | 5.55 | 4.9 | – | Clc1cccc(Nc2nc(N3CCOCC3)nc(-n3cccn3)n2)c1 |
